We go through two compounds from patent publication US20260335332A1, “STABLE MONOHYDRATE FORM OF AVIBACTAM SODIUM SALT AND PREPARATION METHOD THEREFOR” (KYONGBO PHARM. CO., LTD., priority 2022, published 2026).

Where two headings read alike, the source gives them in different places.

The conditions of data set [1]: described in WO2011/042560 A1; cited from earlier work.
Data set [2] can be described thus: DSC pattern measurement. In kind it is physicochemical. The note with it: 3 to 5 mg, 25 to 500° C. at 10 K/min. As to the method:
The DSC pattern was measured while heating 3 to 5 mg of the novel monohydrate form “a” of avibactam sodium salt prepared in Example 1 from 25 to 500° C. at a rate of 10 K/min. As a result, the exothermic decomposition peak was confirmed at 227.3° C. […] It was confirmed therefrom that it had different physicochemical properties from the monohydrate form “A”, and the results are shown in FIG. 6.

For data set [3] the following is noted: described in WO2011/042560 A1; cited from earlier work. This is another data set of the same source.
Data set [4] in a line: Comparative accelerated stability test on purity/appearance changes (40° C., 75% relative humidity), HPLC. In kind it is physicochemical. The note with it: 6 weeks. As to the method: The novel monohydrate form “a” of avibactam sodium salt prepared in Example 1, the monohydrate form “A” and the anhydrous form “B” were each packaged in glass vials and stored at 40° C. and 75% relative humidity for 6 weeks and the purity changes thereof were measured by HPLC at weekly intervals.

A short description of data set [5]: Accelerated stability test on moisture content changes (40° C., 75% relative humidity), Karl-Fischer. In kind it is physicochemical. To be noted: glass vial, 6 weeks, Karl-Fischer moisture meter. The protocol: The novel monohydrate form “a” of avibactam sodium salt prepared in Example 1 was packaged in a glass vial and stored at 40° C. and 75% relative humidity for 6 weeks and the change in moisture content thereof was measured by a Karl-Fischer moisture meter at weekly intervals for about 6 weeks.

Data set [6] in a line: TGA pattern measurement. To be noted: 3 to 5 mg, 30 to 500° C. at 10 K/min; theoretical water content of the monohydrate 5.90%. In kind it is physicochemical. As to the method: The TGA pattern was measured while heating 3 to 5 mg of the novel monohydrate form “a” of avibactam sodium salt prepared in Example 1 from 30 to 500° C. at a rate of 10 K/min. […] In addition, decomposition exotherm accompanied by weight loss at 200 to 220° C. was confirmed and the results are shown in FIG. 5.

In the case of `NC(=O)[C@@H]1CC[C@@H]2CN1C(=O)N2OS(=O)(=O)O` [form “E”, (1R,2S,5R)-7-oxo-6-sulfooxy-1,6-diazabicyclo[3.2.1]octane-2-carboxamide sodium], the “stability during long storage and at higher temperature” value in data set [1] is “tends to lose water and hydrolyze during long storage and at higher temperature”.

Regarding `NC(=O)[C@@H]1CC[C@@H]2CN1C(=O)N2OS(=O)(=O)O` [form “a”, (1R,2S,5R)-7-oxo-6-sulfooxy-1,6-diazabicyclo[3.2.1]octane-2-carboxamide sodium], the “exothermic decomposition peak (DSC)” value in data set [2] is 227.3 °C; in data set [3], 238.9 °C. Besides, the “pharmaceutical stability compared with anhydrous form “B”” value in data set [4] (accelerated stability, vs anhydrous form “B”) is reported as “pharmaceutically more stable than the form “B””. The “stability (purity changes) compared with monohydrate form “A”” value in data set [4] (glass vials, HPLC at weekly intervals, vs monohydrate form “A”) is reported as “a more stable form than the monohydrate form “A””. Moreover, in data set [5], the “maintenance of monohydrate form (change in moisture content)” value is “maintained the monohydrate form thereof”. Besides, the “weight loss at 100 to 140° C. (TGA)” value in data set [6] was 5.57%.
